Source: patent US20250305931A1, “METHOD FOR ANALYZING A URINE SAMPLE, AND A REAGENT FOR ANALYZING A URINE SAMPLE” (SYSMEX CORPORATION, priority 2024, published 2025)

How the values were obtained:
[1] = test system: purified yeast fungus (C. glabrata); assay: Staining of yeast-like fungi in spiked negative urine, flow cytometer UF-5000 SF channel, average fluorescence intensity of the yeast cluster; assay type: cell-based; conditions: for average value of the fluorescence intensity compared with when other compounds are used: concentrations of Table 2; for average value of the fluorescence intensity compared with 2-phenoxyethanol used alone: Example 2, compound mixed with 2-phenoxyethanol
Experimental: Each of the following substances was dissolved in purified water to prepare a buffer solution.
When the compound shown in the following table was not dissolved, the compound was used after filtration. […] Furthermore, a first reagent having the same composition as Diluting Liquid of EXAMPLE-1 of U.S. Patent Publication No. 2006/0073601 was prepared. The first reagent is represented by [2-phenoxyethanol(*)] in the following table. In the following table, the compound of the present embodiment is shown in bold.
UF-fluorocell SF for UF-5000 (Sysmex Corporation) was used. Such reagents include polymethine-based dyes and stain lipid bilayer membranes and porous protein aggregates of cells, and the like.
A purified yeast fungus (C. glabrata) was added to negative urine to a concentration of about 1800 cells/μL. In order to confirm the effect on red blood cells, human blood was added to negative urine so that the concentration of red blood cells was about 400 cells/μL. As the negative urine, a commercially available Normal Human Urine (Golden West Diagnostics, LLC) was filtered through a 0.22-μm membrane filter, and a urine specimen having a negative result in a sediment assay was used.
A measurement sample was prepared by mixing a first reagent and a second reagent with a urine sample, and measurement was performed using an SF channel of a flow cytometer UF-5000 (Sysmex Corporation), and a scattergram was prepared in which a forward scattered light intensity was taken on the vertical axis and a fluorescence intensity was taken on the horizontal axis. In measurement using the SF channel, red blood cells, crystals, a glass cylinder, a cylinder containing contents, and the like are measured. To calculate the average value of the fluorescence intensity of yeast fungi, an arbitrary region Y for each measurement was set, and the average value of the fluorescence intensity of a population of dots appearing in the region was calculated. Note that the value of the fluorescence intensity is a relative value when the minimum value of the horizontal axis in the scattergram is 0 and the maximum value is 255.
SF. Specifically, after mixing 362.5 μL of the first reagent, 125 μL of the urine specimen, and 12.5 μL of the second reagent, the measurement sample was prepared by stirring at about 39° C. for 9 seconds, and then flowed into the flow cell of the detection section. Information on scattered light and fluorescence emitted from particles in the measurement sample that received the laser beam was acquired by the detection unit. A scattergram was generated based on the obtained optical information.

yeast-like fungi = assay: Clinical urine specimens, staining of yeast-like fungi on the scattergram; assay type: cell-based; conditions: Example 4, chlorphenesin 3 g/L, or 1,2-octanediol 2 g/L with 2-phenoxyethanol 6 g/L, control UF-CELLPACK SF
Experimental: The following specimens were used as the specimen. • (1) Clinical specimen 1: a specimen in which yeast-like fungi and red blood cells are detected in a microscopy • (2) Clinical specimen 2 to 4: a specimen in which yeast-like fungi have been detected by microscopy • (3) Clinical specimen 5 to 10: a specimen in which red blood cells are detected in a microscopy
A urine sample was measured in the same manner as in Example 1, except that the first reagent was prepared by adding 3 g/L chlorphenesin or 6 g/L 2-phenoxyethanol and 2 g/L 1,2-octanediol to the buffer solution described in Example 1. In addition, a urine sample was measured in the same manner as in Example 1 using UF-CELLPACK SF (manufactured by Sysmex) as a first reagent as a control. UF-CELLPACK SF (manufactured by Sysmex) contained 6 g/L of 2-phenoxyethanol. In the following table, the compound of the present embodiment is shown in bold.

[2] = Example 1, 10 g/L in first reagent, final 7.3 g/L, filtered if not dissolved, relative scale 0-255

Compound: Oc1ccccc1-c1ccccc1 [ORTHOPHENYLPHENOL, orthophenylphenol]
- AVERAGE VALUE OF FLUORESCENT SIGNAL INTENSITY ([1]; Example 1, 3 g/L in first reagent, final 2.2 g/L, relative scale 0-255): 250.1
- average value of the fluorescence intensity compared with when other compounds are used ([1]; Example 1): significantly larger

Compound: OCCOCCOc1ccccc1 [PHENYL DIGLYCOL, reference compound]
- AVERAGE VALUE OF FLUORESCENT SIGNAL INTENSITY [1, 2]: 165.0

Compound: OCCOc1ccccc1 [2-PHENOXYETHANOL, 2-phenoxyethanol, reference compound]
- AVERAGE VALUE OF FLUORESCENT SIGNAL INTENSITY ([1]; Example 1, 7.5 g/L in first reagent, final 5.4 g/L, relative scale 0-255): 196.9

Compound: CCCCCCC(C)O (stereo not drawn) [2-OCTANOL, 2-octanol]
- AVERAGE VALUE OF FLUORESCENT SIGNAL INTENSITY [1, 2]: 240.6

Compound: CCCCCCCCC(O)CO (stereo not drawn) [1,2-DECANEDIOL, 1,2-decanediol]
- AVERAGE VALUE OF FLUORESCENT SIGNAL INTENSITY ([1]; Example 1, 1 g/L in first reagent, final 0.7 g/L, relative scale 0-255): 252.7

Compound: CCCCCCC(O)CO (stereo not drawn) [1,2-OCTANEDIOL, 1,2-octanediol]
- staining of yeast-like fungi (yeast-like fungi; clinical specimen 1 (yeast-like fungi and red blood cells)): more strongly stained
- staining of yeast-like fungi (yeast-like fungi; clinical specimens 2 to 4 rich in yeast-like fungi): more strongly stained
- AVERAGE VALUE OF FLUORESCENT SIGNAL INTENSITY ([1]; Example 1, 6 g/L in first reagent, final 4.4 g/L, relative scale 0-255): 253.4
- average value of the fluorescence intensity compared with 2-phenoxyethanol used alone [1]: significantly larger
- AVERAGE VALUE OF FLUORESCENT SIGNAL INTENSITY ([1]; Example 3, 3 g/L in first reagent, final 2.2 g/L): 222.1
- AVERAGE VALUE OF FLUORESCENT SIGNAL INTENSITY ([1]; Example 3, 4 g/L in first reagent, final 2.9 g/L): 245.3
- AVERAGE VALUE OF FLUORESCENT SIGNAL INTENSITY ([1]; Example 3, 5 g/L in first reagent, final 3.6 g/L): 251.0
- AVERAGE VALUE OF FLUORESCENT SIGNAL INTENSITY ([1]; Example 3, 6 g/L in first reagent, final 4.4 g/L): 252.1

Compound: OCCCOc1ccccc1 [3-PHENOXY-1-PROPANOL, 3-phenoxy-1-propanol]
- AVERAGE VALUE OF FLUORESCENT SIGNAL INTENSITY ([1]; Example 1, 7 g/L in first reagent, final 5.1 g/L, relative scale 0-255): 253.6
- average value of the fluorescence intensity compared with when other compounds are used ([1]; Example 1): significantly larger
- average value of the fluorescence intensity compared with 2-phenoxyethanol used alone [1]: significantly larger

Compound: CCCCCCCCC(C)O (stereo not drawn) [2-DECANOL, reference compound]
- AVERAGE VALUE OF FLUORESCENT SIGNAL INTENSITY [1, 2]: 106.0

Compound: CCCCC(O)CO (stereo not drawn) [1,2-HEXANEDIOL, reference compound]
- AVERAGE VALUE OF FLUORESCENT SIGNAL INTENSITY [1, 2]: 107.7

Compound: COc1cccc(OCC(C)O)c1 (stereo not drawn) [1-(3-METHOXYPHENOXY)-2-PROPANOL, 1-(3-methoxyphenoxy)-2-propanol]
- AVERAGE VALUE OF FLUORESCENT SIGNAL INTENSITY ([1]; Example 1, 9 g/L in first reagent, final 6.5 g/L, relative scale 0-255): 246.8
- average value of the fluorescence intensity compared with when other compounds are used ([1]; Example 1): significantly larger

Compound: OCCCCCCCCO [1,8-OCTANEDIOL, reference compound]
- AVERAGE VALUE OF FLUORESCENT SIGNAL INTENSITY [1, 2]: 120.5

Compound: OCCCCC(O)CO (stereo not drawn) [1,2,6-HEXANETRIOL, reference compound]
- AVERAGE VALUE OF FLUORESCENT SIGNAL INTENSITY [1, 2]: 80.5

Compound: COC(=O)c1ccc(O)cc1 [METHYLPARABEN, reference compound]
- AVERAGE VALUE OF FLUORESCENT SIGNAL INTENSITY ([1]; Example 1, 1.9 g/L in first reagent, final 1.4 g/L, relative scale 0-255): 220.5

Compound: CCCCCCCCCCC(O)CO (stereo not drawn) [1,2-DODECANEDIOL, reference compound]
- AVERAGE VALUE OF FLUORESCENT SIGNAL INTENSITY ([1]; Example 1, 0.5 g/L in first reagent, final 0.4 g/L, relative scale 0-255): 107.6

Compound: CCCCCC(C)O (stereo not drawn) [2-HEPTANOL, 2-heptanol]
- AVERAGE VALUE OF FLUORESCENT SIGNAL INTENSITY [1, 2]: 250.1
- average value of the fluorescence intensity compared with 2-phenoxyethanol used alone [1]: significantly larger
